Results reported in ChEMBL document CHEMBL4507257, “Data for DCP probe ABT-100” (2021).

Tests used:
[1] = target: Tyrosine-protein kinase ABL2 (Homo sapiens) (UniProt P42684); conditions: Compound concentration 1000.0 nM
[2] = target: Dual specificity protein kinase CLK2 (Homo sapiens) (UniProt P49760); conditions: Compound concentration 1000.0 nM
[3] = target: Casein kinase I isoform alpha (Homo sapiens) (UniProt P48729); conditions: Compound concentration 1000.0 nM
[4] = target: Casein kinase I isoform gamma-1 (Homo sapiens) (UniProt Q9HCP0); conditions: Compound concentration 1000.0 nM
Chain of Casein kinase I isoform gamma-1 (Homo sapiens) (Q9HCP0 whole entry, looked up, canonical isoform): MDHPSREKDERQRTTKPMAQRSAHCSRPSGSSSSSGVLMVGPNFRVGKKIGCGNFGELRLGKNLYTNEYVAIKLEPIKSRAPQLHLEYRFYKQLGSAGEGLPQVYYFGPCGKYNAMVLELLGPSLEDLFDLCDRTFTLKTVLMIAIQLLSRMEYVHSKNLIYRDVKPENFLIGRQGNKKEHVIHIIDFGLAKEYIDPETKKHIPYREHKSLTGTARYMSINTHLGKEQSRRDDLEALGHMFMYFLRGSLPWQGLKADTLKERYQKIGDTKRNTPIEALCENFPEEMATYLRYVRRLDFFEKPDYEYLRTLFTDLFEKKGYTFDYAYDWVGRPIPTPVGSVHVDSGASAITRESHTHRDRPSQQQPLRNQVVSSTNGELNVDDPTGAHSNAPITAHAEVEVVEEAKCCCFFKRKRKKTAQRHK

[5] = target: Eukaryotic translation initiation factor 2-alpha kinase 1 (Homo sapiens) (UniProt Q9BQI3); conditions: Compound concentration 1000.0 nM
[6] = target: Ephrin type-A receptor 2 (Homo sapiens) (UniProt P29317); conditions: Compound concentration 1000.0 nM
Chain of Ephrin type-A receptor 2 (Homo sapiens) (P29317 whole entry): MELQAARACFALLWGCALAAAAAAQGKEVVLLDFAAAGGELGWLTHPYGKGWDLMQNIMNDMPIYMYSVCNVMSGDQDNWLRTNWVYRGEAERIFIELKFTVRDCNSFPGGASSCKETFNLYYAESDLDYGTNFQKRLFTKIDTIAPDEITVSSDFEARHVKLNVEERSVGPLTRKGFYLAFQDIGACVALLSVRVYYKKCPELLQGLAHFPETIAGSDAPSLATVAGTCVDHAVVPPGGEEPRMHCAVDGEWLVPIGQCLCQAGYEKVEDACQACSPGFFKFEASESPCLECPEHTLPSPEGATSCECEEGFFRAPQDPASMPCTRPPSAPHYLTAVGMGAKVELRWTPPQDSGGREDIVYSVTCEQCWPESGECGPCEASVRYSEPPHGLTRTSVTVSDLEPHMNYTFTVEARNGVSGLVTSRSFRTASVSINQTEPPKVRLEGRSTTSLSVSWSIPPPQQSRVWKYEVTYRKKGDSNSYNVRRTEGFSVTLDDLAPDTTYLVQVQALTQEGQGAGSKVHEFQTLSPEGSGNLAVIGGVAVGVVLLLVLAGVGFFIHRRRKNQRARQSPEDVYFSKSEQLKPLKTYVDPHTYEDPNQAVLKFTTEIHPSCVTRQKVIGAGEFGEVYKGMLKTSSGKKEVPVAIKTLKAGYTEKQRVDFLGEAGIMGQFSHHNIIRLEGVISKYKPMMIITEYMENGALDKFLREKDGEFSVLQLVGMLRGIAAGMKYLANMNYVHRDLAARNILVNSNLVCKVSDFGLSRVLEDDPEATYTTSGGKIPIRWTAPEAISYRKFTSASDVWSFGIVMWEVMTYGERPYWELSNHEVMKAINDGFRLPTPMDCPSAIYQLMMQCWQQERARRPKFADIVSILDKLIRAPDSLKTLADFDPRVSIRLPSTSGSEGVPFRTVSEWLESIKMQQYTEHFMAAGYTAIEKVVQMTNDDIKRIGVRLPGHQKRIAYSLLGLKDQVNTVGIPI

[7] = target: Ephrin type-A receptor 4 (Homo sapiens) (UniProt P54764); conditions: Compound concentration 1000.0 nM
[8] = target: Mitogen-activated protein kinase 7 (Homo sapiens) (UniProt Q13164); conditions: Compound concentration 1000.0 nM
[9] = tested on: Receptor-type tyrosine-protein kinase FLT3 (Homo sapiens), P36888 [D835H]; conditions: Compound concentration 1000.0 nM
[10] = target: Tyrosine-protein kinase FRK (Homo sapiens) (UniProt P42685); conditions: Compound concentration 1000.0 nM
[11] = target: Tyrosine-protein kinase Fyn (Homo sapiens) (UniProt P06241); conditions: Compound concentration 1000.0 nM
[12] = target: Homeodomain-interacting protein kinase 1 (Homo sapiens) (UniProt Q86Z02); conditions: Compound concentration 1000.0 nM
Chain of Homeodomain-interacting protein kinase 1 (Homo sapiens) (Q86Z02 whole entry, looked up): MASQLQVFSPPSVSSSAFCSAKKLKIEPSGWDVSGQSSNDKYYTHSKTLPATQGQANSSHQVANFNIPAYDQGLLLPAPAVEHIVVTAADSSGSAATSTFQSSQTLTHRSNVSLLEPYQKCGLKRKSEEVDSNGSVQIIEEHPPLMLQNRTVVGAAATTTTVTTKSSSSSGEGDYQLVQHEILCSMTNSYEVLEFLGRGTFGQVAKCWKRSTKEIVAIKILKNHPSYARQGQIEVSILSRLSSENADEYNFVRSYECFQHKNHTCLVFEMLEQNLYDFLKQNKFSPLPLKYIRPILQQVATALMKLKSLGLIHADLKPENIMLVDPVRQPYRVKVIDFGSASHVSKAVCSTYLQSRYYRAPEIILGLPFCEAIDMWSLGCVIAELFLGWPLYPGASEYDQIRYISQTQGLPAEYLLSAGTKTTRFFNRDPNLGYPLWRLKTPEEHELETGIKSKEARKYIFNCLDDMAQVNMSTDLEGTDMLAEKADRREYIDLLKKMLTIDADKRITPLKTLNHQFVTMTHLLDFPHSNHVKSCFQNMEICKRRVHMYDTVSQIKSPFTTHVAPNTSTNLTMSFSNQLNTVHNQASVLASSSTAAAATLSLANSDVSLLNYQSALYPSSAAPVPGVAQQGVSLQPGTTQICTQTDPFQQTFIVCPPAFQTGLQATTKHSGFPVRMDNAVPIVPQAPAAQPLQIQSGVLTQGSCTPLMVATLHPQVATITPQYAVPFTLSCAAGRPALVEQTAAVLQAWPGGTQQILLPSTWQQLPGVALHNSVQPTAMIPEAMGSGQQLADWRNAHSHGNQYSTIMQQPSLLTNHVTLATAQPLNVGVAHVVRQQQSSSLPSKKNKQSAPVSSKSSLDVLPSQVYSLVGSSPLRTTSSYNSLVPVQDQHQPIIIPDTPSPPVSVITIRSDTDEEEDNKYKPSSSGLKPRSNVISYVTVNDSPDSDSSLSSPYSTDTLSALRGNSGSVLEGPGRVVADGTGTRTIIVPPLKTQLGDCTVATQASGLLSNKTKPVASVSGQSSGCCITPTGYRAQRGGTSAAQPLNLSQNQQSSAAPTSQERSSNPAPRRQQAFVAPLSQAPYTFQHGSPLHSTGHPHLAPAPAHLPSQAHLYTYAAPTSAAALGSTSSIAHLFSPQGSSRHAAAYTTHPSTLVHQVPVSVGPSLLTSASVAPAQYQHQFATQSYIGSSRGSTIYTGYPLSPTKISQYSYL

[13] = target: Interleukin-1 receptor-associated kinase 3 (Homo sapiens) (UniProt Q9Y616); conditions: Compound concentration 1000.0 nM
[14] = target: Mitogen-activated protein kinase 9 (Homo sapiens) (UniProt P45984); conditions: Compound concentration 1000.0 nM
[15] = tested on: Mast/stem cell growth factor receptor Kit (Homo sapiens), P10721 [D816H]; conditions: Compound concentration 1000.0 nM
[16] = target: Serine/threonine-protein kinase LATS1 (Homo sapiens) (UniProt O95835); conditions: Compound concentration 1000.0 nM
[17] = target: Serine/threonine-protein kinase 10 (Homo sapiens) (UniProt O94804); conditions: Compound concentration 1000.0 nM
[18] = target: Mitogen-activated protein kinase kinase kinase kinase 4 (Homo sapiens) (UniProt O95819); conditions: Compound concentration 1000.0 nM
[19] = target: Dual specificity mitogen-activated protein kinase kinase 3 (Homo sapiens) (UniProt P46734); conditions: Compound concentration 1000.0 nM
Chain of Dual specificity mitogen-activated protein kinase kinase 3 (Homo sapiens) (P46734 whole entry): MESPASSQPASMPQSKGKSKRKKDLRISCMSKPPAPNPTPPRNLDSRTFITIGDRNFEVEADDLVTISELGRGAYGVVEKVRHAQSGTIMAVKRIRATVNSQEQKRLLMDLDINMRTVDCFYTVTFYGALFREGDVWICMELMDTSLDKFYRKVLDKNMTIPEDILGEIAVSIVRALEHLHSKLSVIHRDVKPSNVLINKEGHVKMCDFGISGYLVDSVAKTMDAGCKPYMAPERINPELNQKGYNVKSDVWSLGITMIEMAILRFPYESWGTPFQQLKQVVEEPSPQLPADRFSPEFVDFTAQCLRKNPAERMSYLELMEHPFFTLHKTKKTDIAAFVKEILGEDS

[20] = target: Dual specificity mitogen-activated protein kinase kinase 5 (Homo sapiens) (UniProt Q13163); conditions: Compound concentration 1000.0 nM
[21] = target: Hepatocyte growth factor receptor (Homo sapiens) (UniProt P08581); conditions: Compound concentration 1000.0 nM
[22] = target: Myosin light chain kinase (Homo sapiens) (UniProt Q32MK0); conditions: Compound concentration 1000.0 nM
[23] = target: Mitogen-activated protein kinase kinase kinase 9 (Homo sapiens) (UniProt P80192); conditions: Compound concentration 1000.0 nM
[24] = target: Serine/threonine-protein kinase 4 (Homo sapiens) (UniProt Q13043); conditions: Compound concentration 1000.0 nM
[25] = target: Myosin light chain kinase 2, skeletal/cardiac muscle (Homo sapiens) (UniProt Q9H1R3); conditions: Compound concentration 1000.0 nM
[26] = target: Serine/threonine-protein kinase 38 (Homo sapiens) (UniProt Q15208); conditions: Compound concentration 1000.0 nM
[27] = target: Serine/threonine-protein kinase Nek5 (Homo sapiens) (UniProt Q6P3R8); conditions: Compound concentration 1000.0 nM
[28] = target: Mitogen-activated protein kinase 14 (Homo sapiens) (UniProt Q16539); conditions: Compound concentration 1000.0 nM
[29] = target: Mitogen-activated protein kinase 11 (Homo sapiens) (UniProt Q15759); conditions: Compound concentration 1000.0 nM
[30] = target: Platelet-derived growth factor receptor beta (Homo sapiens) (UniProt P09619); conditions: Compound concentration 1000.0 nM
Chain of Platelet-derived growth factor receptor beta (Homo sapiens) (P09619 whole entry): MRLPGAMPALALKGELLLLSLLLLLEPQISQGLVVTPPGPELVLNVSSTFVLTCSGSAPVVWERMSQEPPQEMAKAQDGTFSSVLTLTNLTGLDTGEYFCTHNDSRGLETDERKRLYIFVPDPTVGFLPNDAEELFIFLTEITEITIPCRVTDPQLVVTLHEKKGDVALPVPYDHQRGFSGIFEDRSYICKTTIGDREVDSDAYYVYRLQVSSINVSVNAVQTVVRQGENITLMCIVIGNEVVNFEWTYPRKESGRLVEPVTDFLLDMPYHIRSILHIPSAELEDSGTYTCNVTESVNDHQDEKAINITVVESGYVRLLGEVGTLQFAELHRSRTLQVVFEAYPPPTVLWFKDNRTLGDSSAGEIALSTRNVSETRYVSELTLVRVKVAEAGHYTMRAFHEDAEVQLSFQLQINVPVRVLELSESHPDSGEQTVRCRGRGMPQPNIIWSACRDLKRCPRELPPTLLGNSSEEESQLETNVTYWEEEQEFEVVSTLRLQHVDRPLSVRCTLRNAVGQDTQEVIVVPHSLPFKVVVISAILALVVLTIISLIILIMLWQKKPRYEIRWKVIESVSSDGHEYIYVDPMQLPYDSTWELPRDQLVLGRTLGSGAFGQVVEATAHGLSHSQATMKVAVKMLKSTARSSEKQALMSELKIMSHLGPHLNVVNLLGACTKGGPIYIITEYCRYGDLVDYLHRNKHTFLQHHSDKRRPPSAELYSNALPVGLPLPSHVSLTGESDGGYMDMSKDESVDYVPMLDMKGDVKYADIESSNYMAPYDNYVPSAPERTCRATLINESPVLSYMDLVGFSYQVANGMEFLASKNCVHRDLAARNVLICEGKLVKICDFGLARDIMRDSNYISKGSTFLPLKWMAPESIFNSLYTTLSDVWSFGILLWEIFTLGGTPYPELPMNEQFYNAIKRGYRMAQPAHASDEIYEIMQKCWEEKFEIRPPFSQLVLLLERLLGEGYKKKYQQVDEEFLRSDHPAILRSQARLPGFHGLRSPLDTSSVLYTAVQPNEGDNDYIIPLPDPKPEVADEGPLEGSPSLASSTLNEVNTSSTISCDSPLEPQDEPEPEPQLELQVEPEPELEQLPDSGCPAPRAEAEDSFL

[31] = target: Cyclin-dependent kinase 15 (Homo sapiens) (UniProt Q96Q40); conditions: Compound concentration 1000.0 nM
[32] = target: Cyclin-dependent kinase 14 (Homo sapiens) (UniProt O94921); conditions: Compound concentration 1000.0 nM
Chain of Cyclin-dependent kinase 14 (Homo sapiens) (O94921 whole entry, canonical isoform): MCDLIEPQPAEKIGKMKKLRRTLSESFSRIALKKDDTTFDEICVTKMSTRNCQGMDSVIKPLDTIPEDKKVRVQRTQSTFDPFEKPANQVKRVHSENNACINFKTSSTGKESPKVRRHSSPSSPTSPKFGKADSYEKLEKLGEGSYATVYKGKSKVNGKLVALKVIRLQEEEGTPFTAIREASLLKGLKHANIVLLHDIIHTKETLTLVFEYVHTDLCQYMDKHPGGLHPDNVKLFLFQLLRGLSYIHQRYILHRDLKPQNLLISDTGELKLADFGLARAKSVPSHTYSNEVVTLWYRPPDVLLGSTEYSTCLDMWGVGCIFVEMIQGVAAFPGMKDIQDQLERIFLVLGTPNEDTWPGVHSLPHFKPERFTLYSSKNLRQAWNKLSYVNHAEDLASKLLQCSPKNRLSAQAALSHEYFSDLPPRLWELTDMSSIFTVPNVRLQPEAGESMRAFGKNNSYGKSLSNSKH

[33] = target: Phosphorylase b kinase gamma catalytic chain, skeletal muscle/heart isoform (Homo sapiens) (UniProt Q16816); conditions: Compound concentration 1000.0 nM
[34] = tested on: Phosphatidylinositol 4,5-bisphosphate 3-kinase catalytic subunit alpha isoform (Homo sapiens), P42336 [C420R]; conditions: Compound concentration 1000.0 nM
[35] = tested on: Phosphatidylinositol 4,5-bisphosphate 3-kinase catalytic subunit alpha isoform (Homo sapiens), P42336 [H1047L]; conditions: Compound concentration 1000.0 nM
[36] = tested on: Phosphatidylinositol 4,5-bisphosphate 3-kinase catalytic subunit alpha isoform (Homo sapiens), P42336 [M1043I]; conditions: Compound concentration 1000.0 nM
[37] = tested on: Phosphatidylinositol 4,5-bisphosphate 3-kinase catalytic subunit alpha isoform (Homo sapiens), P42336 [Q546K]; conditions: Compound concentration 1000.0 nM
[38] = target: Serine/threonine-protein kinase PLK1 (Homo sapiens) (UniProt P53350); conditions: Compound concentration 1000.0 nM
[39] = target: Interferon-induced, double-stranded RNA-activated protein kinase (Homo sapiens) (UniProt P19525); conditions: Compound concentration 1000.0 nM
[40] = target: Ribosomal protein S6 kinase alpha-4 (Homo sapiens) (UniProt O75676); conditions: Compound concentration 1000.0 nM
[41] = target: Ribosomal protein S6 kinase alpha-6 (Homo sapiens) (UniProt Q9UK32); conditions: Compound concentration 1000.0 nM
[42] = target: TRAF2 and NCK-interacting protein kinase (Homo sapiens) (UniProt Q9UKE5); conditions: Compound concentration 1000.0 nM
[43] = target: Wee1-like protein kinase (Homo sapiens) (UniProt P30291); conditions: Compound concentration 1000.0 nM
[44] = target: Alpha-1A adrenergic receptor (Homo sapiens) (UniProt P35348); conditions: Compound concentration 10.0 uM
[45] = target: Alpha-1B adrenergic receptor (Homo sapiens) (UniProt P35368); conditions: Compound concentration 10.0 uM

Chain of Dual specificity protein kinase CLK2 (Homo sapiens) (P49760 whole entry, looked up, canonical isoform): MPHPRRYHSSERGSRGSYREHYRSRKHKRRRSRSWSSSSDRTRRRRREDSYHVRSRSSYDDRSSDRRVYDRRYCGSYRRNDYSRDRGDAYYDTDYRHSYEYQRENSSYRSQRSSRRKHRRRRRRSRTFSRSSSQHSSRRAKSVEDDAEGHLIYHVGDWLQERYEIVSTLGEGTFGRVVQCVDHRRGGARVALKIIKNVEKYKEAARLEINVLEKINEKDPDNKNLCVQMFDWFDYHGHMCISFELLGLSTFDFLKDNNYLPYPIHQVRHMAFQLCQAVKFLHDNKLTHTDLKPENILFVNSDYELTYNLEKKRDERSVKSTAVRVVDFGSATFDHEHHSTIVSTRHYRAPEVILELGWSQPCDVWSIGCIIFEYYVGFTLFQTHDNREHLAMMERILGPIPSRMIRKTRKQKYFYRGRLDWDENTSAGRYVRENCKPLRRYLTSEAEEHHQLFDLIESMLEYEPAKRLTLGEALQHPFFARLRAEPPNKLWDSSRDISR

Cn1cncc1[C@@](O)(COc1ccc(C#N)cc1-c1ccc(OC(F)(F)F)cc1)c1ccc(C#N)cc1 [A-108]
active: residual activity [7] 12%
inactive: residual activity [1] 100% | residual activity [2] 90% | residual activity [3] 78% | residual activity [4] 91% | residual activity [5] 100% | residual activity [6] 89% | residual activity [8] 93% | residual activity [9] 67% | residual activity [10] 100% | residual activity [11] 97% | residual activity [12] 79% | residual activity [13] 91% | residual activity [14] 92% | residual activity [15] 100% | residual activity [16] 100% | residual activity [17] 100% | residual activity [18] 100% | residual activity [19] 100% | residual activity [20] 88% | residual activity [21] 94% | residual activity [22] 96% | residual activity [23] 98% | residual activity [24] 100% | residual activity [25] 100% | residual activity [26] 100% | residual activity [27] 98% | residual activity [28] 100% | residual activity [29] 96% | residual activity [30] 97% | residual activity [31] 100% | residual activity [32] 100% | residual activity [33] 95% | residual activity [34] 90% | residual activity [35] 100% | residual activity [36] 72% | residual activity [37] 85% | residual activity [38] 83% | residual activity [39] 100% | residual activity [40] 93% | residual activity [41] 100% | residual activity [42] 99% | residual activity [43] 100% | inhibition [44] 4.51% | inhibition [45] 5.97%

Cn1cncc1[C@](O)(COc1ccc(C#N)cc1-c1ccc(OC(F)(F)F)cc1)c1ccc(C#N)cc1 [ABT-100]
inactive: residual activity [1] 83% | residual activity [2] 87% | residual activity [3] 100% | residual activity [4] 90% | residual activity [5] 100% | residual activity [6] 62% | residual activity [7] 100% | residual activity [8] 93% | residual activity [9] 84% | residual activity [10] 100% | residual activity [11] 100% | residual activity [12] 100% | residual activity [13] 71% | residual activity [14] 89% | residual activity [15] 77% | residual activity [16] 87% | residual activity [17] 100% | residual activity [18] 100% | residual activity [19] 78% | residual activity [20] 83% | residual activity [21] 74% | residual activity [22] 100% | residual activity [23] 81% | residual activity [24] 86% | residual activity [25] 78% | residual activity [26] 75% | residual activity [27] 72% | residual activity [28] 100% | residual activity [29] 90% | residual activity [30] 100% | residual activity [31] 59% | residual activity [32] 86% | residual activity [33] 63% | residual activity [34] 100% | residual activity [35] 100% | residual activity [36] 100% | residual activity [37] 82% | residual activity [38] 77% | residual activity [39] 100% | residual activity [40] 76% | residual activity [41] 93% | residual activity [42] 81% | residual activity [43] 100% | inhibition [44] -7.75% | inhibition [45] 16.6%
